Reference: a compilation of properties of binary mixtures (doi:10.1021/acs.jced.6b00596)

Experiment: xn = mol fraction of the nth substance listed
Conditions: 100 kPa

CCCCCCCC[P+](CC)(CC)CC.O=[N+]([O-])c1c[n-]cn1 + COCCOCCOCCOCCOC
viscosity (278.15 K, x1 = 0.499): 77 mPa·s
viscosity (278.15 K, x1 = 0.8): 385 mPa·s
viscosity (278.15 K, x1 = 0.9): 700 mPa·s
viscosity (283.15 K, x1 = 0.499): 60 mPa·s
viscosity (283.15 K, x1 = 0.599): 93 mPa·s
viscosity (283.15 K, x1 = 0.699): 153 mPa·s
viscosity (283.15 K, x1 = 0.8): 274 mPa·s
viscosity (283.15 K, x1 = 0.9): 481 mPa·s
viscosity (283.15 K, x1 = 1): 838 mPa·s
viscosity (288.15 K, x1 = 0.599): 72 mPa·s
viscosity (288.15 K, x1 = 0.8): 198 mPa·s
viscosity (288.15 K, x1 = 0.9): 337 mPa·s
viscosity (293.15 K, x1 = 0.599): 56 mPa·s
viscosity (293.15 K, x1 = 0.699): 87 mPa·s
viscosity (293.15 K, x1 = 0.8): 148 mPa·s
viscosity (293.15 K, x1 = 0.9): 243 mPa·s
viscosity (293.15 K, x1 = 1): 398 mPa·s
viscosity (298.15 K, x1 = 0.699): 69 mPa·s
viscosity (298.15 K, x1 = 0.8): 113 mPa·s
viscosity (298.15 K, x1 = 1): 286 mPa·s
viscosity (303.15 K, x1 = 0.699): 55 mPa·s
viscosity (303.15 K, x1 = 0.8): 88 mPa·s
viscosity (303.15 K, x1 = 0.9): 137 mPa·s
viscosity (303.15 K, x1 = 1): 212 mPa·s
viscosity (308.15 K, x1 = 0.8): 70 mPa·s
viscosity (308.15 K, x1 = 0.9): 107 mPa·s
viscosity (308.15 K, x1 = 1): 160 mPa·s
viscosity (313.15 K, x1 = 0.8): 57 mPa·s
viscosity (313.15 K, x1 = 0.9): 85 mPa·s
viscosity (313.15 K, x1 = 1): 124 mPa·s
viscosity (318.15 K, x1 = 0.9): 69 mPa·s
viscosity (318.15 K, x1 = 1): 98 mPa·s
viscosity (323.15 K, x1 = 0.9): 56 mPa·s
viscosity (323.15 K, x1 = 1): 78 mPa·s

CC(=O)[O-].CCCCCCCCCCCCCC[P+](CCCCCC)(CCCCCC)CCCCCC + COCCOCCOCCOCCOC
viscosity (278.15 K, x2 = 0.103): 1160 mPa·s
viscosity (278.15 K, x2 = 0.299): 401 mPa·s
viscosity (278.15 K, x2 = 0.4): 257 mPa·s
viscosity (283.15 K, x2 = 0.103): 789 mPa·s
viscosity (283.15 K, x2 = 0.299): 291 mPa·s
viscosity (283.15 K, x2 = 0.4): 191 mPa·s
viscosity (283.15 K, x2 = 0.499): 121 mPa·s
viscosity (288.15 K, x2 = 0.207): 332 mPa·s
viscosity (288.15 K, x2 = 0.299): 215 mPa·s
viscosity (288.15 K, x2 = 0.499): 92 mPa·s
viscosity (293.15 K, x2 = 0.103): 392 mPa·s
viscosity (293.15 K, x2 = 0.207): 244 mPa·s
viscosity (293.15 K, x2 = 0.299): 162 mPa·s
viscosity (293.15 K, x2 = 0.4): 111 mPa·s
viscosity (293.15 K, x2 = 0.499): 73 mPa·s
viscosity (298.15 K, x2 = 0.207): 184 mPa·s
viscosity (298.15 K, x2 = 0.299): 125 mPa·s
viscosity (298.15 K, x2 = 0.499): 58 mPa·s
viscosity (303.15 K, x2 = 0.103): 216 mPa·s
viscosity (303.15 K, x2 = 0.207): 142 mPa·s
viscosity (303.15 K, x2 = 0.299): 99 mPa·s
viscosity (303.15 K, x2 = 0.4): 70 mPa·s
viscosity (308.15 K, x2 = 0.103): 166 mPa·s
viscosity (308.15 K, x2 = 0.207): 112 mPa·s
viscosity (308.15 K, x2 = 0.299): 79 mPa·s
viscosity (308.15 K, x2 = 0.4): 57 mPa·s
viscosity (313.15 K, x2 = 0.207): 89 mPa·s
viscosity (313.15 K, x2 = 0.299): 64 mPa·s
viscosity (318.15 K, x2 = 0.103): 103 mPa·s
viscosity (318.15 K, x2 = 0.207): 73 mPa·s
viscosity (318.15 K, x2 = 0.299): 53 mPa·s
viscosity (323.15 K, x2 = 0.103): 84 mPa·s
viscosity (323.15 K, x2 = 0.207): 60 mPa·s

COCCOCCOCCOCCOC + CCCCCC[n+]1ccn(C)c1.O=S(=O)([N-]S(=O)(=O)C(F)(F)F)C(F)(F)F
viscosity (278.15 K, x1 = 0.099): 171 mPa·s
viscosity (278.15 K, x1 = 0.19): 130 mPa·s
viscosity (278.15 K, x1 = 0.276): 109 mPa·s
viscosity (278.15 K, x1 = 0.413): 78 mPa·s
viscosity (278.15 K, x1 = 0.544): 50 mPa·s
viscosity (283.15 K, x1 = 0.099): 126 mPa·s
viscosity (283.15 K, x1 = 0.19): 97 mPa·s
viscosity (283.15 K, x1 = 0.276): 81 mPa·s
viscosity (283.15 K, x1 = 0.413): 60 mPa·s
viscosity (288.15 K, x1 = 0.19): 74 mPa·s
viscosity (288.15 K, x1 = 0.276): 63 mPa·s
viscosity (293.15 K, x1 = 0.099): 74 mPa·s
viscosity (293.15 K, x1 = 0.19): 57 mPa·s

CCC=C[n+]1ccn(C)c1C.O=[N+]([O-])c1cn[n-]c1 + COCCOCCOCCOCCOC
viscosity (278.15 K, x1 = 0.4): 70 mPa·s
viscosity (278.15 K, x1 = 0.5): 139 mPa·s
viscosity (278.15 K, x1 = 0.701): 622 mPa·s
viscosity (278.15 K, x1 = 0.801): 1280 mPa·s
viscosity (278.15 K, x1 = 0.9): 2810 mPa·s
viscosity (283.15 K, x1 = 0.4): 51 mPa·s
viscosity (283.15 K, x1 = 0.5): 97 mPa·s
viscosity (283.15 K, x1 = 0.601): 176 mPa·s
viscosity (283.15 K, x1 = 0.701): 385 mPa·s
viscosity (283.15 K, x1 = 0.801): 737 mPa·s
viscosity (283.15 K, x1 = 0.952): 2200 mPa·s
viscosity (288.15 K, x1 = 0.5): 70 mPa·s
viscosity (288.15 K, x1 = 0.601): 121 mPa·s
viscosity (288.15 K, x1 = 0.701): 249 mPa·s
viscosity (288.15 K, x1 = 0.801): 447 mPa·s
viscosity (293.15 K, x1 = 0.5): 53 mPa·s
viscosity (293.15 K, x1 = 0.701): 169 mPa·s
viscosity (293.15 K, x1 = 0.801): 288 mPa·s
viscosity (293.15 K, x1 = 0.9): 525 mPa·s
viscosity (293.15 K, x1 = 0.952): 706 mPa·s
viscosity (298.15 K, x1 = 0.601): 65 mPa·s
viscosity (298.15 K, x1 = 0.801): 195 mPa·s
viscosity (298.15 K, x1 = 0.9): 338 mPa·s
viscosity (303.15 K, x1 = 0.701): 89 mPa·s
viscosity (303.15 K, x1 = 0.9): 228 mPa·s
viscosity (303.15 K, x1 = 0.952): 289 mPa·s
viscosity (308.15 K, x1 = 0.701): 69 mPa·s
viscosity (308.15 K, x1 = 0.801): 101 mPa·s
viscosity (308.15 K, x1 = 0.9): 161 mPa·s
viscosity (308.15 K, x1 = 0.952): 204 mPa·s
viscosity (313.15 K, x1 = 0.701): 53 mPa·s
viscosity (313.15 K, x1 = 0.801): 77 mPa·s
viscosity (313.15 K, x1 = 0.952): 140 mPa·s
viscosity (318.15 K, x1 = 0.801): 60 mPa·s
viscosity (318.15 K, x1 = 0.9): 89 mPa·s
viscosity (318.15 K, x1 = 0.952): 104 mPa·s
viscosity (323.15 K, x1 = 0.9): 70 mPa·s

CCCC[P+](CC)(CC)CC.Cc1ncc([N+](=O)[O-])[n-]1 + COCCOCCOCCOCCOC
viscosity (278.15 K, x2 = 0.102): 972 mPa·s
viscosity (278.15 K, x2 = 0.201): 516 mPa·s
viscosity (278.15 K, x2 = 0.299): 258 mPa·s
viscosity (278.15 K, x2 = 0.401): 134 mPa·s
viscosity (278.15 K, x2 = 0.501): 74 mPa·s
viscosity (283.15 K, x2 = 0.048): 975 mPa·s
viscosity (283.15 K, x2 = 0.201): 350 mPa·s
viscosity (283.15 K, x2 = 0.299): 183 mPa·s
viscosity (288.15 K, x2 = 0.048): 634 mPa·s
viscosity (288.15 K, x2 = 0.102): 421 mPa·s
viscosity (288.15 K, x2 = 0.201): 243 mPa·s
viscosity (288.15 K, x2 = 0.299): 134 mPa·s
viscosity (288.15 K, x2 = 0.401): 74 mPa·s
viscosity (293.15 K, x2 = 0.048): 428 mPa·s
viscosity (293.15 K, x2 = 0.102): 291 mPa·s
viscosity (293.15 K, x2 = 0.201): 175 mPa·s
viscosity (293.15 K, x2 = 0.299): 100 mPa·s
viscosity (293.15 K, x2 = 0.401): 57 mPa·s
viscosity (298.15 K, x2 = 0.048): 299 mPa·s
viscosity (298.15 K, x2 = 0.299): 76 mPa·s
viscosity (303.15 K, x2 = 0.048): 215 mPa·s
viscosity (303.15 K, x2 = 0.102): 153 mPa·s
viscosity (303.15 K, x2 = 0.201): 99 mPa·s
viscosity (303.15 K, x2 = 0.299): 60 mPa·s
viscosity (308.15 K, x2 = 0.102): 116 mPa·s
viscosity (308.15 K, x2 = 0.201): 77 mPa·s
viscosity (313.15 K, x2 = 0.048): 121 mPa·s
viscosity (313.15 K, x2 = 0.201): 62 mPa·s
viscosity (318.15 K, x2 = 0.048): 94 mPa·s
viscosity (318.15 K, x2 = 0.102): 71 mPa·s
viscosity (323.15 K, x2 = 0.048): 74 mPa·s
viscosity (323.15 K, x2 = 0.102): 57 mPa·s
